Measurements reported in ChEMBL document CHEMBL3885881, “DrugMatrix”.

Organism: Rattus norvegicus
Assay: DrugMatrix - Regimen: Daily Repeat
Assay type: toxicity, organism-based, Sprague-Dawley
Parameters: regimen Daily Repeat, gender Male, age 6-8 weeks
Conditions: in vivo, po, route oral GAVAGE, vehicle .5 % CMC; for ABSOLUTE BASOPHIL / ABSOLUTE EOSINOPHIL / ABSOLUTE LYMPHOCYTE / ABSOLUTE MONOCYTE / ABSOLUTE SEGMENTED NEUTROPHIL / BASOPHIL / EOSINOPHIL / ERYTHROCYTE COUNT / HEMATOCRIT / HEMOGLOBIN / LEUKOCYTE COUNT / LYMPHOCYTE / MEAN CORPUSCULAR HEMOGLOBIN / MEAN CORPUSCULAR HEMOGLOBIN CONCENTRATION / MEAN CORPUSCULAR VOLUME / MONOCYTE / NEUTROPHIL / NUCLEATED RED BLOOD CELLS / PLATELET COUNT: tissue Blood; for ALANINE AMINOTRANSFERASE / ALBUMIN / ALKALINE PHOSPHATASE / ASPARTATE AMINOTRANSFERASE / BLOOD UREA NITROGEN / CARBON DIOXIDE / CHLORIDE / CHOLESTEROL / CREATINE PHOSPHOKINASE / CREATININE / GLUCOSE / LACTATE DEHYDROGENASE / LIPASE / PHOSPHORUS / POTASSIUM / SODIUM / TOTAL BILIRUBIN / TOTAL PROTEIN / URIC ACID: tissue Plasma
[1] = 0 mg/kg, 72 h, dose level Control, time 3 day
[2] = 0 mg/kg, 120 h, dose level Control, time 5 day
[3] = 3 mg/kg, 72 h, dose level Low, time 3 day

COc1nc(C)nc(Cl)c1N=C1NCCN1 [MOXONIDINE]
ABSOLUTE BASOPHIL [1]: 0 CELLS/uL | ABSOLUTE EOSINOPHIL [1]: 47.67 CELLS/uL | ABSOLUTE LYMPHOCYTE [1]: 15937.67 CELLS/uL | ABSOLUTE MONOCYTE [1]: 138.33 CELLS/uL | ABSOLUTE SEGMENTED NEUTROPHIL [1]: 1443 CELLS/uL | BASOPHIL [1]: 0% | EOSINOPHIL [1]: 0.33% | ERYTHROCYTE COUNT [1]: 5.45 x10E6/uL | HEMATOCRIT [1]: 34.43% | HEMOGLOBIN [1]: 13.38 G/DL | LEUKOCYTE COUNT [1]: 17.57 x10E3/uL | LYMPHOCYTE [1]: 90.33% | MEAN CORPUSCULAR HEMOGLOBIN [1]: 24.6 pg | MEAN CORPUSCULAR HEMOGLOBIN CONCENTRATION [1]: 38.88 G/DL | MEAN CORPUSCULAR VOLUME [1]: 63.27 fL | MONOCYTE [1]: 0.83% | NEUTROPHIL [1]: 8.5% | NUCLEATED RED BLOOD CELLS [1]: 0 /100WBC | PLATELET COUNT [1]: 1298 x10E3/uL | ALANINE AMINOTRANSFERASE [1]: 47.67 u/L | ALBUMIN [1]: 4.18 G/DL | ALKALINE PHOSPHATASE [1]: 398.5 u/L | ASPARTATE AMINOTRANSFERASE [1]: 93.17 u/L | BLOOD UREA NITROGEN [1]: 16 mg/dL | CARBON DIOXIDE [1]: 29.17 mmol/L | CHLORIDE [1]: 98.17 MEQ/L | CHOLESTEROL [1]: 68.83 mg/dL | CREATINE PHOSPHOKINASE [1]: 467.33 u/L | CREATININE [1]: 0.14 mg/dL | GLUCOSE [1]: 151.67 mg/dL | LACTATE DEHYDROGENASE [1]: 597.5 u/L | LIPASE [1]: 9.33 u/L | PHOSPHORUS [1]: 11.97 mg/dL | POTASSIUM [1]: 6.43 MEQ/L | SODIUM [1]: 140.68 MEQ/L | TOTAL BILIRUBIN [1]: 0.18 mg/dL | TOTAL PROTEIN [1]: 5.82 G/DL | URIC ACID [1]: 1.48 mg/dL | ABSOLUTE BASOPHIL [2]: 0 CELLS/uL | ABSOLUTE EOSINOPHIL [2]: 31 CELLS/uL | ABSOLUTE LYMPHOCYTE [2]: 14327.83 CELLS/uL | ABSOLUTE MONOCYTE [2]: 102.83 CELLS/uL | ABSOLUTE SEGMENTED NEUTROPHIL [2]: 1321.67 CELLS/uL | BASOPHIL [2]: 0% | EOSINOPHIL [2]: 0.17% | ERYTHROCYTE COUNT [2]: 5.79 x10E6/uL | HEMATOCRIT [2]: 36.1% | HEMOGLOBIN [2]: 14.15 G/DL | LEUKOCYTE COUNT [2]: 15.78 x10E3/uL | LYMPHOCYTE [2]: 90.5% | MEAN CORPUSCULAR HEMOGLOBIN [2]: 24.48 pg | MEAN CORPUSCULAR HEMOGLOBIN CONCENTRATION [2]: 39.22 G/DL | MEAN CORPUSCULAR VOLUME [2]: 62.4 fL | MONOCYTE [2]: 0.67% | NEUTROPHIL [2]: 8.67% | NUCLEATED RED BLOOD CELLS [2]: 0.17 /100WBC | PLATELET COUNT [2]: 1211.67 x10E3/uL | ALANINE AMINOTRANSFERASE [2]: 49 u/L | ALBUMIN [2]: 4.27 G/DL | ALKALINE PHOSPHATASE [2]: 356.67 u/L | ASPARTATE AMINOTRANSFERASE [2]: 90.17 u/L | BLOOD UREA NITROGEN [2]: 20.5 mg/dL | CARBON DIOXIDE [2]: 29.17 mmol/L | CHLORIDE [2]: 98 MEQ/L | CHOLESTEROL [2]: 69.83 mg/dL | CREATINE PHOSPHOKINASE [2]: 312 u/L | CREATININE [2]: 0.21 mg/dL | GLUCOSE [2]: 149.83 mg/dL | LACTATE DEHYDROGENASE [2]: 322 u/L | LIPASE [2]: 10 u/L | PHOSPHORUS [2]: 12 mg/dL | POTASSIUM [2]: 6.75 MEQ/L | SODIUM [2]: 142.8 MEQ/L | TOTAL BILIRUBIN [2]: 0.17 mg/dL | TOTAL PROTEIN [2]: 6.1 G/DL | URIC ACID [2]: 1.68 mg/dL | ABSOLUTE BASOPHIL [3]: 0 CELLS/uL | ABSOLUTE EOSINOPHIL [3]: 88 CELLS/uL | ABSOLUTE LYMPHOCYTE [3]: 13570 CELLS/uL | ABSOLUTE MONOCYTE [3]: 44 CELLS/uL | ABSOLUTE SEGMENTED NEUTROPHIL [3]: 1298 CELLS/uL | BASOPHIL [3]: 0% | EOSINOPHIL [3]: 0.67% | ERYTHROCYTE COUNT [3]: 5.63 x10E6/uL | HEMATOCRIT [3]: 34.87% | HEMOGLOBIN [3]: 13.07 G/DL | LEUKOCYTE COUNT [3]: 15 x10E3/uL | LYMPHOCYTE [3]: 89.67% | MEAN CORPUSCULAR HEMOGLOBIN [3]: 23.2 pg | MEAN CORPUSCULAR HEMOGLOBIN CONCENTRATION [3]: 37.5 G/DL | MEAN CORPUSCULAR VOLUME [3]: 61.9 fL | MONOCYTE [3]: 0.33% | NEUTROPHIL [3]: 9.33% | NUCLEATED RED BLOOD CELLS [3]: 0 /100WBC | PLATELET COUNT [3]: 1254.67 x10E3/uL | ALANINE AMINOTRANSFERASE [3]: 48 u/L | ALBUMIN [3]: 4 G/DL | ALKALINE PHOSPHATASE [3]: 327.67 u/L | ASPARTATE AMINOTRANSFERASE [3]: 95 u/L | BLOOD UREA NITROGEN [3]: 17 mg/dL | CARBON DIOXIDE [3]: 29 mmol/L | CHLORIDE [3]: 99.33 MEQ/L | CHOLESTEROL [3]: 69.67 mg/dL | CREATINE PHOSPHOKINASE [3]: 328.67 u/L | CREATININE [3]: 0.17 mg/dL | GLUCOSE [3]: 144 mg/dL | LACTATE DEHYDROGENASE [3]: 269.67 u/L | LIPASE [3]: 10.33 u/L | PHOSPHORUS [3]: 12.07 mg/dL | POTASSIUM [3]: 5.9 MEQ/L | SODIUM [3]: 142.9 MEQ/L | TOTAL BILIRUBIN [3]: 0.23 mg/dL | TOTAL PROTEIN [3]: 5.53 G/DL | URIC ACID [3]: 1.4 mg/dL
